Read-outs that look alike come from different tables or passages of the source.

The target in one test is KRAS-WT (Homo sapiens, UniProt P01116). Briefly: SOS-catalyzed nucleotide exchange assay (Procedure A, TR-FRET), KRAS-WT. The conditions noted are these: nucleotide exchange, read-out: KRAS WT GNE IC50. It counts as biochemical. A digest of the protocol:
(§1)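 Biotinylated RAS (KRAS-G12C carries C51S/C80L/C118S; others WT background) preloaded with Bodipy-GDP plus Tb-streptavidin, preincubated with compound 60 min at RT, then human SOS and 3 mM GTP added. Final RAS/SOS: G12C 3 nM/40 nM, 60 min; WT 1 nM/40 nM, 60 min; G12V 1.25 nM/160 nM, 90 min; NRAS 1.25 nM/40 nM, 60 min. TR-FRET 520/495 ratio normalized to DMSO and saturating inhibitor; 10-point curves fit four-parameter logistic.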

Another test concerns MKN-1 cells. Kind of test: Cellular phospho-ERK assay, MKN-1 cells (amplified wild-type KRAS). In kind it is cell-based. The conditions noted are these: Homo sapiens, read-out: MKN1 pERK IC50. A digest of the protocol:
(§2)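 Overnight-plated cells on collagen received test compound (up to 30 μM final, threefold steps, ten concentrations) for two hours. After lysis at room temperature, phosphorylated and total ERK were quantified together by Alpha SureFire, and IC50 is based on the phospho-to-total signal ratio.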

For a further test, the system named is SW620 cells. Briefly: Cellular phospho-ERK assay, SW620 cells (homozygous KRAS-G12V). It counts as cell-based. The conditions noted are these: Homo sapiens, read-out: SW620 pERK IC50. A digest of the protocol:
as §2

The target in test [1] is KRAS-G12C (C51S/C80L/C118S) (Homo sapiens, UniProt P01116, C118S/C51S/C80L/G12C). Kind of test: SOS-catalyzed nucleotide exchange assay (Procedure A, TR-FRET), KRAS-G12C. It counts as biochemical. The conditions noted are these: nucleotide exchange, Procedure A; read-out: KRAS G12C GNE IC50. The gist of the method:
as §1

The next test concerns AsPC-1 cells. Briefly: Cellular phospho-ERK assay, AsPC-1 cells (homozygous KRAS-G12D). The conditions noted are these: Homo sapiens, ASPC1, 2 h, read-out: AsPC1 pERK IC50. In kind it is cell-based. A digest of the protocol:
as §2

In the next test the test system is PANC08.13 cells. Kind of test: Cellular phospho-ERK assay, PANC08.13 cells (homozygous KRAS-G12D). It counts as cell-based. Conditions: Homo sapiens, read-out: PANC-08.13 pERK IC50. A digest of the protocol:
as §2

Another test concerns the target KRAS-G12V (Homo sapiens, UniProt P01116, G12V). Kind of test: SOS-catalyzed nucleotide exchange assay (Procedure A, TR-FRET), KRAS-G12V. In kind it is biochemical. Conditions: nucleotide exchange, read-out: KRAS G12V GNE IC50. A digest of the protocol:
as §1

For a further test, the target named is KRAS-G13D (Homo sapiens, UniProt P01116, G13D). Kind of test: SOS-catalyzed nucleotide exchange assay (Procedure A, TR-FRET), KRAS-G13D. In kind it is biochemical. Conditions: nucleotide exchange, Procedure A; read-out: KRAS G13D GNE IC50. In general terms: Time-resolved FRET reads energy transfer from a long-lived donor to a nearby acceptor.
Another test has as its target KRAS-G12D (Homo sapiens, UniProt P01116, G12D). Briefly: SOS-catalyzed nucleotide exchange assay (Procedure A, TR-FRET), KRAS-G12D. It counts as biochemical. The conditions noted are these: nucleotide exchange, read-out: KRAS G12D GNE IC50. The gist of the method: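 Signal ratio (520/495 nm, excitation 340 nm) reports Bodipy-GDP retention on biotinylated RAS after SOS-catalyzed exchange with 3 mM GTP. SOS was 40 nM, except 160 nM for G12V. Room-temperature exchange lasted 60 min (90 min for G12V), following a 60 min compound preincubation.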

Setting [2] is: amplified wild-type KRAS, 2 hours.

Sequence of KRAS-G12V (P01116 with tags, fused parts or gaps isoform P01116-2 G12V): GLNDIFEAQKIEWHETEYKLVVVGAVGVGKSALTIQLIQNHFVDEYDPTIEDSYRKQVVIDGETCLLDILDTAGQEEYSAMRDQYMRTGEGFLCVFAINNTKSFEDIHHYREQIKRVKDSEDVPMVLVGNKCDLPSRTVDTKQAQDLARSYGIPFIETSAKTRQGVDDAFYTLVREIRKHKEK
Sequence of KRAS-G12C (C51S/C80L/C118S) (P01116 with tags, fused parts or gaps isoform P01116-2 G12C/C51S/C80L/C118S): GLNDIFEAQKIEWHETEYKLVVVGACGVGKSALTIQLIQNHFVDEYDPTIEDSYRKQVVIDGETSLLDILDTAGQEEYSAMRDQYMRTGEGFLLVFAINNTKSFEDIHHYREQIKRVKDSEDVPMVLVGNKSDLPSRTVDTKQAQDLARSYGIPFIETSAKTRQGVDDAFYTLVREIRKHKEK
Sequence of KRAS-G12D (P01116 with tags, fused parts or gaps isoform P01116-2 G12D): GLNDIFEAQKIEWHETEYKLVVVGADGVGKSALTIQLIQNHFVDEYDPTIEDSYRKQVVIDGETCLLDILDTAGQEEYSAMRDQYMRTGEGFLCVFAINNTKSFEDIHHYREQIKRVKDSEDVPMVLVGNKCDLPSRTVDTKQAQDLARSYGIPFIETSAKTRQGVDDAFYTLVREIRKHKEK
Sequence of KRAS-G13D (P01116 with tags, fused parts or gaps isoform P01116-2 G13D): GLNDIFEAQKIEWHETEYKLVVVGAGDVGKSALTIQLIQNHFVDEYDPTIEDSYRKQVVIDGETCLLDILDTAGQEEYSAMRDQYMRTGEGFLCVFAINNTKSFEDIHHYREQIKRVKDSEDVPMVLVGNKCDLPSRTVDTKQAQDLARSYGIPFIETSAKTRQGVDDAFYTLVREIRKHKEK
Sequence of KRAS-WT (P01116 with tags, fused parts or gaps isoform P01116-2): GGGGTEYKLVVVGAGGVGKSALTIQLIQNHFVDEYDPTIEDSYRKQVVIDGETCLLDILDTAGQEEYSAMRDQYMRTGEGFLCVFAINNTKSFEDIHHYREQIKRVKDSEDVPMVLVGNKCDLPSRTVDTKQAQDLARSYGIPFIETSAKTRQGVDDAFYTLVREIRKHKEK

As usually defined, the IC50 is the point on the concentration scale where inhibition reaches its midpoint. For the compound `Cc1cc2[nH]ncc2c(-c2nccc3c4c(N5CCOC[C@@](C)(O)C5)nc(OC[C@]5(CN(C)C)CC5(F)F)nc4n(C)c23)c1C(F)F` (single isomer, unassigned) [Ex-19], the IC50 was found to be 0.0855 µM at KRAS-WT; 0.118 µM in the test with MKN-1 cells (setting [2]); 0.214 µM with SW620 cells (SW-620, KRAS-G12V, 2 hours); 0.0374 µM in test [1]; 0.0585 µM with AsPC-1 cells (KRAS-G12D, 2 hours); 0.0682 µM in the test on PANC08.13 cells (PANC-08-13, KRAS-G12D, 2 hours). The figures for the IC50 at KRAS-G12V, on KRAS-G13D and on KRAS-G12D were 0.0672 µM, 0.0683 µM and 0.0265 µM, respectively.

Take `Cc1cc2[nH]ncc2c(-c2nccc3c4c(N5CCC[C@@](C)(O)C5)nc(OC[C@]5(CN(C)C)CC5(F)F)nc4n(C)c23)c1C(F)(F)F` [Ex-6, (3R)-1-(2-(((R)-1-((dimethylamino)methyl)-2,2-difluorocyclopropyl)methoxy)-9-methyl-8-(6-methyl-5-(trifluoromethyl)-1H-indazol-4-yl)-9H-pyrido[4′,3′:4,5]pyrrolo[2,3-d]pyrimidin-4-yl)-3-methylpiperidin-3-ol]: the IC50 at KRAS-WT amounted to 0.218 µM; with MKN-1 cells (setting [2]) it was 0.304 µM; with SW620 cells (SW-620, KRAS-G12V, 2 hours), 0.291 µM; in test [1], 0.104 µM; in the test with AsPC-1 cells (KRAS-G12D, 2 hours), 0.46 µM; in the test on PANC08.13 cells (PANC-08-13, KRAS-G12D, 2 hours), 0.188 µM. For the same compound, the IC50 at KRAS-G12V came out at 0.128 µM; on KRAS-G13D, 0.049 µM; on KRAS-G12D it was 0.0981 µM.

Turning to `Cc1cc2[nH]ncc2c(-c2nccc3c2sc2nc(OC[C@@]45CCCN4C[C@H](F)C5)nc(N4CCOC[C@@](C)(O)C4)c23)c1OC(F)(F)Cl` [Ex-39, (6S)-4-(8-(5-(chlorodifluoromethoxy)-6-methy1-1H-indazol-4-yl)-2-(((2R,7aS)-2-fluorotetrahydro-1H-pyrrolizin-7a(5H)-yl)methoxy)pyri-do[4′,3′:4,5]thi-eno[2,3-d]pyrimidin-4-yl)-6-methyl-1,4-oxazepan-6-ol], the IC50 turned out to be 0.03 µM at KRAS-WT; 0.0442 µM in the test with MKN-1 cells (setting [2]); 0.0743 µM in the test with SW620 cells (SW-620, KRAS-G12V, 2 hours); 0.00942 µM in test [1]; 0.118 µM in the test with AsPC-1 cells (KRAS-G12D, 2 hours); 0.0357 µM with PANC08.13 cells (PANC-08-13, KRAS-G12D, 2 hours). The IC50 on KRAS-G12V stood at 0.0309 µM; at KRAS-G13D, 0.0204 µM; on KRAS-G12D it was 0.00923 µM.

For `Cc1cc2[nH]ncc2c(-c2nccc3c2sc2nc(OC[C@@]45CCCN4C[C@H](F)C5)nc(N4CCOC[C@@](C)(O)C4)c23)c1Cl` [Ex-32, (6S)-4-(8-(5-chloro-6-methyl-1H-indazol-4-yl)-2-(((2R,7aS)-2-fluorotetrahydro-1H-pyrrolizin-7a(5H)-yl)methoxy)pyrido[4′,3′:4,5]thieno[2,3-d]pyrimidin-4-yl)-6-methyl-1,4-oxazepan-6-ol], the IC50 at KRAS-WT was determined as 0.202 µM; in the test on MKN-1 cells (setting [2]), 0.274 µM; in the test on SW620 cells (SW-620, KRAS-G12V, 2 hours), 0.222 µM; in test [1], 0.0917 µM; with PANC08.13 cells (PANC-08-13, KRAS-G12D, 2 hours), 0.175 µM; on KRAS-G12V it was 0.212 µM. The results for the IC50 at KRAS-G13D and at KRAS-G12D were 0.111 µM and 0.101 µM, respectively.

Consider `C=C(C)c1c(C)cc2[nH]ncc2c1-c1nccc2c1sc1nc(OC[C@@]34CCCN3C[C@H](F)C4)nc(N3CCOC[C@@](C)(O)C3)c12` [Ex-136, (6S)-4-(2-(((2R, 7aS)-2-fluorotetra-hydro-1H-pyrrol-izin-7a(5H)-yl)meth-oxy)-8-(6-methyl-5-(prop-1-en-2-yl)-1H-indazol-4-yl)pyr-ido[4′,3′:4,5]thieno [2,3-d]pyrimidin-4-yl)-6-methyl-1,4-oxazepan-6-ol], for which the IC50 came out at 0.06 µM at KRAS-WT; 0.118 µM in the test on MKN-1 cells (2 hours compound incubation); 0.253 µM in the test with SW620 cells (SW-620, 2 hours compound incubation); 0.039 µM in test [1]; 0.131 µM in the test with AsPC-1 cells (2 hours compound incubation); 0.0584 µM in the test on PANC08.13 cells (PANC-08-13, 2 hours compound incubation). Also, the figures for the IC50 on KRAS-G12V, on KRAS-G13D and at KRAS-G12D were 0.0406 µM, 0.0248 µM and 0.0216 µM, respectively.

Take `Cc1cc2[nH]ncc2c(-c2nccc3c2sc2nc(OC[C@@]45CCCN4C[C@H](F)C5)nc(N4CCOC[C@@](C)(O)C4)c23)c1C(F)F` [Ex-129, (6S)-4-(8-(5-(di-fluoromethyl)-6-methyl-1H-indazol-4-yl)-2-(((2R,7aS)-2-fluorotetrahydro-1H-pyrrolizin-7a(5H)-yl)methoxy)-pyrido[4′,3′:4,5]thieno[2,3-d]pyr-imidin-4-yl)-6-meth-yl-1,4-oxazepan-6-ol]: the IC50 at KRAS-WT amounted to 0.165 µM; in the test on MKN-1 cells (setting [2]) it was 0.241 µM; in the test with SW620 cells (SW-620, KRAS-G12V, 2 hours), 0.211 µM; in test [1], 0.05 µM; with AsPC-1 cells (KRAS-G12D, 2 hours) it was 0.469 µM; in the test on PANC08.13 cells (PANC-08-13, KRAS-G12D, 2 hours) it was 0.144 µM. Moreover, the IC50 at KRAS-G12V worked out at 0.085 µM; at KRAS-G13D, 0.079 µM; at KRAS-G12D, 0.0562 µM.

On to `C#Cc1c(C)cc2[nH]ncc2c1-c1nccc2c1sc1nc(OC[C@@]34CCCN3C[C@H](F)C4)nc(N3CCOC[C@@](C)(O)C3)c12` [Ex-33, (6S)-4-(8-(5-ethynyl-6-methyl-1H-indazol-4-yl)-2-(((2R,7aS)-2-fluorotetrahydro-1H-pyrrolizin-7a(5H)-yl)methoxy)pyrido[4′,3′:4,5]thieno[2,3-d]pyrimidin-4-yl)-6-methyl-1,4-oxazepan-6-ol], for which the IC50 at KRAS-WT is 0.0357 µM; with MKN-1 cells (setting [2]) it was 0.0529 µM; with SW620 cells (SW-620, KRAS-G12V, 2 hours), 0.126 µM; in test [1], 0.0353 µM; in the test with PANC08.13 cells (PANC-08-13, KRAS-G12D, 2 hours), 0.0601 µM; on KRAS-G12V, 0.0287 µM. Also, the IC50 on KRAS-G13D is 0.0197 µM; on KRAS-G12D, 0.0136 µM.

As to `Cn1c2nc(OC[C@@]34CCCN3C[C@H](F)C4)nc(N3CCOC[C@@](C)(O)C3)c2c2ccnc(-c3ccc(F)c4sc(N)c(C#N)c34)c21` [Ex-16, 2-amino-7-fluoro-4-(2-(((2R,7aS)-2-fluorotetrahydro-1H-pyrrolizin-7a(5H)-yl)methoxy)-4-((S)-6-hydroxy-6-methyl-1,4-oxazepan-4-yl)-9-methyl-9H-pyrido[4′,3′:4,5]pyrrolo[2,3-d]pyrimidin-8-yl)benzo[b]thiophene-3-carbonitrile], the IC50 worked out at 0.765 µM on KRAS-WT; 1.77 µM in the test with MKN-1 cells (setting [2]); 8.49 µM with SW620 cells (SW-620, KRAS-G12V, 2 hours); 1.32 µM in test [1]; 5.45 µM in the test with PANC08.13 cells (PANC-08-13, KRAS-G12D, 2 hours); 0.561 µM on KRAS-G12V. The IC50 came to 0.315 µM on KRAS-G13D and 0.952 µM at KRAS-G12D.

Consider `COc1cc2c3c(N4CCOC[C@@](C)(O)C4)nc(OC[C@@]45CCCN4C[C@H](F)C5)nc3n(C)c2c(-c2c(C(F)(F)F)c(C)cc3[nH]ncc23)n1` [Ex-26, (6S)-4-(2-(((2R,7aS)-2-fluorotetrahydro-1H-pyrrolizin-7a(5H)-yl)methoxy)-6-methoxy-9-methyl-8-(6-methyl-5-(trifluoromethyl)-1H-indazol-4-yl)-9H-pyrido[4′,3′:4,5]pyrrolo[2,3-d]pyrimidin-4-yl)-6-methyl-1,4-oxazepan-6-ol], for which the IC50 at KRAS-WT came to 0.189 µM; in the test on MKN-1 cells (setting [2]), 0.325 µM; in the test on SW620 cells (SW-620, KRAS-G12V, 2 hours) it was 0.709 µM; in test [1] it was 0.209 µM; in the test on PANC08.13 cells (PANC-08-13, KRAS-G12D, 2 hours), 0.17 µM; on KRAS-G12V it was 0.0963 µM. For the same compound, the results for the IC50 at KRAS-G13D and on KRAS-G12D were 0.0943 µM and 0.096 µM, respectively.

The record behind these values is patent US20260176289A1, “SMALL MOLECULE INHIBITORS OF KRAS PROTEINS” (Merck Sharp & Dohme LLC, priority 2022, published 2026).
